Measured values reported in patent US6537553B1, “Leukosialin: Ig fusion proteins” (La Jolla Cancer Research Foundation, priority 1993, dated 2003).

Experiments:
[1] = test system: activated mouse tEnd.1 cells (E-selectin mediated adhesion); experiment: Inhibition of adhesion of SM colonic carcinoma cells to IL-1β-activated mouse tEnd.1 endothelial cell monolayers; assay type: cell-based; conditions: for inhibition of adhesion of SM cells to activated mouse tEnd.1 cells: IL-1β-activated tEnd.1 monolayers, result in words (FIG. 4, 5A, 5B)
From the text: The mouse endothelioma cell lines, eEnd.2, sEnd.1, tEnd.1, and bEnd.4 were kindly provided by Dr. R. Lindsay Williams at the Ludwig Institute for Cancer Research, […], Austria. These cell lines, originally derived from a subcutaneous (sEnd.1), thymic (tEnd.1), embryonal (eEnd.2), and brain (bEnd.4) hemangliomas produced in transgenic mice expressing polyoma middle T antigen (Williams et al., Cell 52:121-131 (1988)). The cells were maintained in Dulbecco's modified Eagle's medium containing 10% fetal calf serum. Mouse endothelioma cell lines were cultured in 96-well tissue culture plates and activated with 10 units/ml IL-1β (Sigma) and then washed with Dulbecco's modified Eagle's medium containing 5% fetal calf serum before the colonic carcinoma cells were added. As the control, non-activated mouse endothelial cells were prepared identically and used in parallel for the adhesion assays. The adhesion and inhibition of the adhesion by soluble lamp-1 and soluble leukosialin were carried out exactly as described previously (Sawada et al., supra).
Inhibition by sialyl Le^x-positive glycolipid, NeuNAcα2→3Galβ1→4-(Fucα1→3)GlcNAcβ1→3Galβ1→4Glc→Cer was tested after the glycolipid was incorporated into liposomes (Phillips et al., Science 250:1130-1132 (1990)). Paragloboside, NeuNAcα2→3Galβ1→4GlcNAcβ1→3Galβ1→4Glc→Cer was used as a control glycolipid. Sialyl Le^x glycolipid (Kameyama et al., Carbohydr. Res. 209:C1-C4 (1991)) and paragloboside were kindly provided by Drs. Akira Hasegana, Gifu University, Japan, and Michiko Fukuda at this institute, respectively. In order to determine if sialyl Le^x structure on the human colonic cells are recognized by mouse endothelial cells, the adhesion was assayed after the colonic cells were preincubated with anti-sialyl Le^x antibody (CSLEX, IgM) or mouse anti-Le^x monoclonal antibody (anti-PMN-6, IgM). The anti-PMN-6 antibody (Ball and Fanger, Blood 61:456-463 (1983)) was kindly provided by Dr. Ball of the Dartmouth Medical School.
First, the binding of the cell line with the highest adhesion efficiency was tested in the presence of a sialyl Le^x containing glycolipid. SM cells were subjected to adhesion to activated mouse tEnd.1 cells as described in Example IV (and FIG. 3) (open bar), or as in FIG. 3 after pretreatment of the activated monolayers with liposomes containing sialyl Le^x glycolipid (hatched bars), or after pretreatment with liposomes containing the control glycolipid paragloboside (cross-hatched bar). The amount of glycolipid is shown in μg/ml at the x axis. The adhesion to non-activated mouse endothelial cells is shown by the closed bar. Data correspond to the fraction of applied cells still adherent to tEnd.1 cells after washing and are mean and standard deviation from four replicate assays.
The adhesion of SM cells to activated mouse tEnd.1 cells was tested for inhibition by soluble lamp-1 (FIG. 5A) or soluble leukosialin (FIG. 5B). The inhibition by soluble lamp-1 or soluble leukosialin derived from sialyl Le^x positive CHO cells is shown by hatched bars.
Inhibition by control soluble lamp-1 or control soluble leukosialin, which were derived from sialyl Le^x negative CHO cells, is shown by cross-hatched bars. The open bar represents the control without the inhibitors while the closed bar represents the adhesion to unstimulated mouse tEnd.1 monolayers. The experiments shown in FIGS. 5A and 5B were carried out at the same time.

[2] = target: mouse E-selectin on IL-1β-activated mouse tEnd.1 endothelioma cells (mouse) (UniProt Q00690); experiment: cell-based or functional assay
Sequence of UniProt Q00690 (Q00690 22-612): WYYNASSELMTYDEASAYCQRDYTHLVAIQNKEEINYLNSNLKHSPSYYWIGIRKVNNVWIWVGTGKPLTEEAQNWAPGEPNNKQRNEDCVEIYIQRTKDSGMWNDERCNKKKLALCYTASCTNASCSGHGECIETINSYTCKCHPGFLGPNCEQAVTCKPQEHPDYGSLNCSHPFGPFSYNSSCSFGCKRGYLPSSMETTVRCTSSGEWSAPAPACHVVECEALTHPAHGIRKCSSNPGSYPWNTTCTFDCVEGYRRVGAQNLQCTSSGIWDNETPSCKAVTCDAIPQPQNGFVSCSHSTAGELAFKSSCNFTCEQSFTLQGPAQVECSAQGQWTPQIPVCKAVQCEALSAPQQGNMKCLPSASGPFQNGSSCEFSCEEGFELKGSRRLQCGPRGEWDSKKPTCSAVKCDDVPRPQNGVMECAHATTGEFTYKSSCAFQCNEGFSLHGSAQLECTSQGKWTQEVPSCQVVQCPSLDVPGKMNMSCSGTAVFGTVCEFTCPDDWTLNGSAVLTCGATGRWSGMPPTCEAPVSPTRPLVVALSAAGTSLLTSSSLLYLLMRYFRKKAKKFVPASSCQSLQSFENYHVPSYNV

HUVEC = conditions: as described in Sawada et al. (1993); cited from earlier work

sialyl-Le^x-negative leukosialin: soluble leukosialin IgG chimeric protein lacking the sialyl-Le^x determinant, from control CHO cells without Fuc-TIII vector [reference compound]
inhibition of adhesion of SM cells to activated mouse tEnd.1 cells ([1]; SM cells): inhibited the binding minimally | inhibition of adhesion of SM cells to activated mouse tEnd.1 cells ([1]; SM cells, listed as soluble sialyl Le^x negative leukosialin): inhibited binding only minimally

sialyl-Le^x-positive leukosialin: soluble leukosialin fused to human IgG1 hinge plus constant region, from CHO cells expressing core 2 GlcNAc-transferase and Fuc-TIII; carries sialyl Le^x
inhibition of adhesion of SM cells to activated mouse tEnd.1 cells ([1]; SM cells): inhibited the adhesion of SM cells to mouse tEnd.1 cells in a concentration-dependent manner | inhibition of adhesion of SM cells to activated mouse tEnd.1 cells ([1]; SM cells, listed as sialyl Le^x positive leukosialin): inhibited the adhesion of SM cells to mouse tEnd.1 cells in a concentration dependent manner | binding of SM cells to tEnd.1 cells, relative to control levels ([1]; SM cells, activated tEnd.1, concentration not stated in text (FIG. 5B)): 30 % of control levels

NeuNAcα2→3Galβ1→4-(Fucα1→3)GlcNAcβ1→3Galβ1→4Glc→Cer [sialyl Le^x glycolipid, reference compound]
inhibition of adhesion of SM cells to activated mouse tEnd.1 cells ([1]; SM cells): inhibited by liposomes containing sialyl Le^x glycolipid in a dose-dependent manner | inhibition of adhesion to mouse cells compared with human endothelial cells ([1]; same carcinoma cells, same conditions, mouse vs human endothelial cells): not as effective as the inhibition of the same carcinoma cells to human endothelial cells

soluble chimeric leukosialin-IgG protein, sialyl Le^x positive (from CHO-leu.C2GnT cells transfected with pSRα.s-leu.IgG and pcDNAI-Fuc.TIII) (from UniProt P16150 20-252; P01857 99-330) (Fc fusion)
adhesion of SM cells to mouse tEnd.1 cells, percent of control (% of control levels) [2]: 30

NeuNAcα2→3Galβ1→4GlcNAcβ1→3Galβ1→4Glc→Cer [sialyl paragloboside, reference compound]
inhibition of adhesion of SM cells to activated mouse tEnd.1 cells ([1]; SM cells): did not inhibit the adhesion even at high concentrations

B1: soluble lamp-1 containing the sialyl Le^x: soluble form of lysosomal membrane glycoprotein-1 from CHO cells co-transfected with Fuc-TIII vector; carries sialyl Le^x (protein)
chain: AMFMVKNGNGTACIMANFSAAFSVNYDTKSGPKNMTFDLPSDATVVLNRSSCGKENTSDPSLVIAFGRGHTLTLNFTRNATRYSVQLMSFVYNLSDTHLFPNASSKEIKTVESITDIRADIDKKYRCVSGTQVHMNNVTVTLHDATIQAYLSNSSFSRGETRCEQDRPSPTTAPPAPPSPSPSPVPKSPSVDKYNVSGTNGTCLLASMGLQLNLTYERKDNTTVTRLLNINPNKTSASGSCGAHLVTLELHSEGTTVLLFQFGMNASSSRFFLQGIQLNTILPDARDPAFKAANGSLRALQATVGNSYKCNAEEHVRVTKAFSVNIFKVWVQAFKVEGGQFGSVEECLLDENSM
inhibition of binding of SP-pSRαlamp-1^H cells to HUVEC (HUVEC): inhibited the binding of the SP-pSRαlamp-1^H to HUVEC | inhibition of adhesion of SM cells to activated mouse tEnd.1 cells ([1]; SM cells): able to inhibit the adhesion of SM cells to activated mouse tEnd.1 cells in a dose-dependent manner
